Laboratory results as given in patent US20240009265A1, “METHODS OF TREATMENT COMPRISING STABLE REDUCED GLUTATHIONE” (Blue Sky Innovation, LLC, priority 2020, published 2024).
Read-outs that look alike come from different tables or passages of the source.

Experiments:
[1] = test system: subject with diabetic peripheral neuropathy (DN); assay: Topical and oral rGSH in diabetic peripheral neuropathy (case study); conditions: for outcome of diabetic neuropathy: person, 13 weeks of therapy
[2] = test system: subjects with chronic shingles and post-herpetic neuralgia (PHN); assay: Topical reduced glutathione in a liposomal carrier in chronic shingles / post-herpetic neuralgia; format: in vivo, human
Excerpt: Most the subjects at the time of the first visit reported significant depression and suicidal thoughts. Most subjects also reported giving up hope. […] The self-rated pain averaged a 7, but many subjects reported that when a break-out was occurring, the pain could spike to a 10. Videos and pictures were taken where and when appropriate with proper releases documented.

[3] = test system: subject with partial and full thickness burn lesions
Protocol: The subject was treated with topical applications of rGSH. The subject was administered the rGSH 5-8 times a day over a 3-month period.
A subject had accidentally burned themself on an outdoor grill. The subject was treated with rGSH at 5-8 times a day with topical application. The subject was also treated with Cephalexin 500 mg in case of infection.

[4] = test system: subjects with chemotherapy-induced peripheral neuropathy (CIPN)
Protocol: Subjects were treated with topical and oral rGSH in a natural liposomal carrier after initial consultation. Subjects began treatment prior to their second visit. Follow-up consultations with subjects occurred weekly to monthly according to symptoms and needs.
Procedures for measuring CIPN were based on interviews performed by a medical professional with subjects. The physician measured nerve sensitivity in some of the subjects using in-office medical instruments.

[5] = test system: subject diagnosed with tardive dyskinesia (TD)
Protocol: Reduced glutathione was administered to the subject 5 times per day in a solution in the amount of about 18.25 mg per spray or about 91.25 mg per administration. The subject cleaned the area of application with a disinfectant wipe before topical application of the reduced glutathione. The topical rGSH was administered in 5 sprays of rGSH for a total dosage of about 91.25 mg. The administered rGSH dried for about 30 seconds before the subject was re-clothed. The facial movements and body movements of the subject were filmed once per week to analyze progression or loss of TD symptoms.
Topical rGSH was prescribed for 5 applications of 5 sprays each day to: (a) their right arm, (b) right jaw and masseter area, and (c) their spine. The total amount of administered rGSH was a total of 25 squirts per day (which is approximately 456 mg of rGSH via a Glutathione supplement) as applied by the nursing staff.

[6] = test system: fibromyalgia syndrome (FMS) subjects; conditions: 43 subjects; rGSH with low copper diet and support product
Excerpt: 43 fibromyalgia subjects underwent dietary changes supplements including: (a) a low copper diet, (b) a support product containing molybdenum, boron, zinc chelate, pyridoxine, N-Acetyl L-Cysteine, L-serine and L-glutamine, and (c) rGSH.

[7] = after 35 days of rGSH treatment

Question: For `C[C@]12CC[C@H]3[C@@H](CCC4=CC(=O)CC[C@@]43C)[C@@H]1CC[C@@H]2O` [injectable testosterone, testosterone, reference compound], which “effect on the subject's issues (insulin sensitivity, muscle strength, neuropathy)” value ([1]; modest dose, before rGSH treatment) is on record?
Answer: did not have a substantial effect

Question: `Nc1nc2c(ncn2COCCO)c(=O)[nH]1` [acyclovir, reference compound] was tested. Which “effect of earlier chronic medication on shingles/PHN pain” value ([2]; chronic doses before rGSH treatment) did it give?
Answer: without substantial ameliorative effect

Question: Which results are given for `N[C@@H](CCC(=O)N[C@@H](CS)C(=O)NCC(=O)O)C(=O)O` [rGSH, reduced glutathione]?
Answer: time to nearly complete resolution of symptoms ([2]; one subject with shingles and PHN for about nine years): ≤ 34 min; share of subjects with nearly complete resolution only over a more extended period ([2]; over a hundred patients and volunteers with shingles): Less than 5%; extended period to nearly complete resolution ([2]; the subjects with slower response): 2 to 5 days; burn pain ([3]; 10 weeks after the burn): no longer had any pain; burn pain ([3]; after 21 days of rGSH treatment): tolerable; infection of the burn [3, 7]: No infection had occurred; state of the wound [3, 7]: dead skin and eschar were gone and new skin has started to epithelialize; state of the wound ([3]; after 49 days of treatment): nearly healed; burn pain within an hour of application ([3]; day of the burn): nearly dissipated; time until pain was subsiding after topical application ([3]; day of the burn): ≤ 30 min; course of burn healing ([3]; topical rGSH 5-8 times per day over a 3-month period): Healing commenced immediately with minimal pain, minimal scarring, no infection, and minimal drainage; time to major resolution of symptoms ([4]; Patient 5-C): ≤ 3 days; pain in the feet ([4]; Patient 5-C, Day 63): no longer felt pain in the feet; CIPN symptoms ([4]; Patient 5-D, Day 31): substantial decrease in symptoms; feeling better since starting treatment ([4]; Patient 5-D, Day 38): about 70%; decrease in symptoms ([4]; Patient 5-D, Day 52): 80%; CIPN symptoms resolved, as reported by the subject ([4]; Subject 5-A, Day 12, only took rGSH orally): about 40%; CIPN symptoms ([4]; Subject 5-B, Day 7): improved symptoms; improvement of symptoms since using rGSH ([4]; Subject 5-B, Day 42): 50%; resolution of CIPN symptoms ([4]; Subject 5-B, Day 84): 70%; resolution of CIPN symptoms ([4]; Subject 5-B, Day 112): 70%; resolution of CIPN symptoms ([4]; Subject 5-B, Day 245, rGSH stopped for a few months): 70%; outcome of TD ([5]; after 10 weeks of treatment): resolved completely; interval between involuntary jaw movements (masseter muscles) ([5]; after 21 days of topical rGSH, about 456 mg/day, before treatment about every 1-2 seconds): 4 to 5 s; interval between involuntary arm movements ([5]; after 21 days of topical rGSH, before treatment about every 1-2 seconds): 4 to 5 s; ambulation ([5]; after 42 days): no longer used assistance for walking up and down stairs; interval between facial and arm movements ([5]; after 42 days of topical rGSH): ~10 s; pain in shoulder, back and jaw ([5]; after 42 days, compared with the 21 day period): substantially decreased; involuntary facial or arm movement ([5]; after 70 days): no longer had involuntary facial or arm movement; pain ([5]; after 70 days): substantially free of pain; TD symptoms ([5]; after 70 days of rGSH administration): substantially free of symptoms; FMS symptoms [6]: substantial resolution; pain in fibromyalgia subjects [6]: substantially reduced pain; renal or liver functions ([1]; after 13 weeks of therapy): No effect; HBA1C ([1]; after 13 weeks of therapy, 10.0% before): 10.1%; neuropathy in the hands ([1]; oral and topical rGSH, weekly examination): complete resolution in their hands in the first few weeks; outcome of diabetic neuropathy [1]: resolved substantially; outcome of diabetic neuropathy ([1]; listed as stable rGSH): resolved; diabetic neuropathy in seven other subjects ([1]; seven other subjects treated with stable rGSH): complete resolution
